Reference: BindingDB's records for patent US20260042754 (Nodus Oncology, 2026)

Target: Poly(ADP-ribose) glycohydrolase (Homo sapiens, UniProt Q86W56)
Experiment: PARG Enzymatic Assay
Protocol: Inhibition of PARG enzymatic activity by compounds was determined as follows: Recombinant His-tagged human PARG protein expressed in Sf21 insect cells (Adipogen AG, #40T-0022) was aliquoted and stored at −80° C. until use. The artificial enzyme substrate 4-(trifluoromethyl)umbelliferone (TFMU)-ADPr was prepared essentially as described (Drown B S et al, Cell Chemical Biology 2018) and stored at −20° C. as 10 mM stock solutions in DMSO (dimethyl sulfoxide) until use. For reactions, typical final concentration of the enzyme was 1 nM and of the TFMU-ADPr 200 μM. Reactions were carried out in black 384-well low volume round bottom assay plates (Corning, #4514) in a final volume of 10 μL. To this end, PARG was diluted to 1.67 nM in reaction buffer (50 mM K2HPO4, 50 mM KCl, 10 mM β-mercaptoethanol, pH 7.4) and 6 μL were dispensed per assay well using a multichannel pipette. […] Fluorescence intensity signals were then measured after 30 minutes on an EnVision microplate reader (PerkinElmer) using 380/10 nm and 535/25 nm filters for the excitation and emission, respectively (gain: 150). […]

Sequence of Poly(ADP-ribose) glycohydrolase (Q86W56 whole entry): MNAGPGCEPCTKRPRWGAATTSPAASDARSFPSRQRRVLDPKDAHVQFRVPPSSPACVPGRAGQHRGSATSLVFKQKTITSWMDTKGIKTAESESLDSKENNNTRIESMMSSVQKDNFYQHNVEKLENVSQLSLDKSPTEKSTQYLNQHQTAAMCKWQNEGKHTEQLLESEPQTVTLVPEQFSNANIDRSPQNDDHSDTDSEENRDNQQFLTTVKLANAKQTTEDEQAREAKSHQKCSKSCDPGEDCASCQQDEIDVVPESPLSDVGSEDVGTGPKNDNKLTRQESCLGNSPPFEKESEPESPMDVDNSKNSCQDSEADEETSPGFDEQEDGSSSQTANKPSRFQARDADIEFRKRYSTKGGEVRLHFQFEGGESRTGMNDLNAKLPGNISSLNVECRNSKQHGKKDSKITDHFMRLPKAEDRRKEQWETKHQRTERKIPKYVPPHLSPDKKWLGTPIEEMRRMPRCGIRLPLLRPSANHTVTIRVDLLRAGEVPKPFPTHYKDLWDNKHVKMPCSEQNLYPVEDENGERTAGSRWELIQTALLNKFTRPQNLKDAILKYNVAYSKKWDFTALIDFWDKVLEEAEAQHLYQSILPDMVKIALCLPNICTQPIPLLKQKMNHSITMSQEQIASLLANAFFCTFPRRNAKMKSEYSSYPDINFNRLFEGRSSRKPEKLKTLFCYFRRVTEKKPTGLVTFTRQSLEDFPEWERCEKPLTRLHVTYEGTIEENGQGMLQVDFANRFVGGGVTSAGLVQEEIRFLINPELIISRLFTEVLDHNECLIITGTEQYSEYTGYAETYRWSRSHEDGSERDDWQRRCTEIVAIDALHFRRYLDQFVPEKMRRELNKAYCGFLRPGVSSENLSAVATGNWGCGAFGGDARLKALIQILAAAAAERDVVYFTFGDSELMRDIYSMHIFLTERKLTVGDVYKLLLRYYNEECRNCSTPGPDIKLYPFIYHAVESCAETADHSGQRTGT

IC50: < 30 nM
SMILES: CO/N=c1\[nH]c2c(N3CCN(C(=O)C4(C(F)(F)F)CC4)[C@H](C)C3)cc(S(=O)(=O)NC3(C)CC3)cc2c(=O)n1Cc1cnn(C)c1 [US20260042754, Example 32]
